Measurements reported in patent US20240317752A1, “6-SUBSTITUTED-9H-PURINE DERIVATIVES AND RELATED USES” (Black Diamond Therapeutics, Inc., priority 2021, published 2024).

Target: T1, BaF3 BRAF-KIAA1549 fusion cells (Homo sapiens, UniProt P15056)
T1 construct: The BRAF-KIAA1549 fusion mutant was subcloned into pMXs-IRES-Blasticidin (RTV-016, Cell Biolabs, San Diego, CA); fused on or other part: Q9HCM3 (UPF0606 protein KIAA1549)
Test: BaF3 BRAF-KIAA1549 fusion cell proliferation assay (CellTiterGlo)
Format: cell-based
Settings: 96 hours incubation, potency code
Description: Retroviral Production: The BRAF-KIAA1549 fusion mutant was subcloned into pMXs-IRES-Blasticidin (RTV-016, Cell Biolabs, San Diego, CA). Retrovirus was produced by transfection of HEK 293T cells with the retroviral BRAF mutant expression vector pMXs-IRES-Blasticidin (RTV-016, Cell Biolabs), pCMV-Gag-Pol vector and pCMV-VSV-G-Envelope vector. Briefly, HEK 293T cells were plated in Poly-D-lysine coated 6-well plate (2.5×10^5 cells per well) and incubated overnight. The next day, retroviral plasmids (1 μg of BRAF-KIAA fusion mutant, 0.32 μg of pCMV-Gag-Pol and 0.165 μg pCMV-VSV-G) were mixed in 300 μL of Optimem (31985, Life Technologies). The mixture was incubated at room temperature for 5 minutes and then added to Optimem containing transfection reagent Lipofectamine (11668, Invitrogen) and incubated for 20 minutes. The mixture was then added dropwise to HEK 293T cells. The next day the medium was replaced with fresh culture medium and retrovirus was harvested at 24 hours.
Generation of BRAF-KIAA1549 fusion stable cell line: BaF3 cells were plated in V-bottom 96 well plate (COSTAR #3894) in 80 μL of RPMI/10% FBS and 0.01 ng/ml mouse IL-3; supplemented with 8 μg/mL polybrene (4×10^4 cells/well). Cells were transduced with 20 μL of BRAF-KIAA1549 fusion viral supernatant by centrifuging for 30 minutes at 1000 rpm. Cells were placed in a 37° C. incubator overnight. Next day 100 μL of RPMI/10% FBS and 0.01 ng/ml mouse IL-3 was added. After 24 hours, 100 μL of cells were transferred to a 24 well plate containing 900 μL of RPMI/10% FBS and 15 μg/mL Blasticidin. Contents of the 24 well plate were sampled for cell viability via CellTiterGlo (Promega) over a 2-week period.
Assay for cell proliferation: BaF3 BRAF-KIAA1549 fusion cells were resuspended at 1.5×10^5c/mL in RPMI containing 10% Heat Inactivated FBS, 1% L-glutamine and dispensed in duplicate ([…]) into 384 well plates. To determine the effect of compound on cell proliferation, BaF3 BRAF-KIAA1549 fusion cells were incubated for 96 hours in the presence of vehicle control (DMSO) or compound at varying concentrations. Inhibition of cell growth was determined by luminescent quantification (Envision by Perkin Elmer) of intracellular ATP content using CellTiterGlo (Promega), according to the protocol provided by the manufacturer. To determine the IC50 values, the vehicle-treated cells were normalized as viable cells and analyzed using the CDD Vault, Collaborative Drug Discovery, Burlingame, CA (the Levenberg-Marquardt algorithm; Levenberg, K., […]; Marquardt, D., 1963).
Tables A1 and A2 assign each compound a code for potency in the BaF3 BRAF-KIAA1549 fusion cell proliferation assay: A, B, C, or D. According to the code, A represents an IC50 value <20 nM; B represents an IC50 value ≥20 nM and <100 nM; C represents an IC50 value ≥100 nM and <500 nM; and D represents an IC50 value ≥500 nM.

T1 sequence (P15056 whole entry, change not shown, the tested form may be a part): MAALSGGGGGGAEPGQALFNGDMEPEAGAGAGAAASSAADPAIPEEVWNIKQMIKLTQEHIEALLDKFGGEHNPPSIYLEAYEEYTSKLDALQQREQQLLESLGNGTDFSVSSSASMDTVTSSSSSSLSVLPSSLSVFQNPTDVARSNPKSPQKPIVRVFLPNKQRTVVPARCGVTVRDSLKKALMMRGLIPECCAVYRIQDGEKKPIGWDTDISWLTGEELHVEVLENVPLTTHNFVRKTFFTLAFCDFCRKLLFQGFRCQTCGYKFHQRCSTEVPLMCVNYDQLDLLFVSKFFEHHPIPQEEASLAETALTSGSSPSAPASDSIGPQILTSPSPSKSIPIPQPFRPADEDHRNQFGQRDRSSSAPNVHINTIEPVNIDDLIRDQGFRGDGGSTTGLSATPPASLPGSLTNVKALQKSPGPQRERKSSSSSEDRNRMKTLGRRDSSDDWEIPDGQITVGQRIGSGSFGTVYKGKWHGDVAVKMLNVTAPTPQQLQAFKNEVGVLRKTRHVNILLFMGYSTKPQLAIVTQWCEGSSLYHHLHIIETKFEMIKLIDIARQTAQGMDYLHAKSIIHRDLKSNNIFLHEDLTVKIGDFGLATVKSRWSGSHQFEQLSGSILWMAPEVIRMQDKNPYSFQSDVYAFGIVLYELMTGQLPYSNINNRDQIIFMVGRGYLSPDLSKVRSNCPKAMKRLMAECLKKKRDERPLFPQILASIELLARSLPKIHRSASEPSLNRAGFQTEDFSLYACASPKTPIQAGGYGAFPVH

Compound | GI50
Cc1ccc(NC(=O)CC2CCCC(C(F)(F)F)C2)cc1Nc1ncccc1-c1ncnc2[nH]cnc12 (stereo not drawn) [Compound I-47, N-(3-((3-(9H-purin-6-yl)pyridin-2-yl)amino)-4-methylphenyl)-2-(3-(trifluoromethyl)cyclohexyl)acetamide] | < 20 nM
Cc1ccc(NC(=O)CN2CCCC(C(F)(F)F)C2)cc1Nc1ncccc1-c1ncnc2[nH]cnc12 (stereo not drawn) [Compound I-77, N-(3-((3-(9H-purin-6-yl)pyridin-2-yl)amino)-4-methylphenyl)-2-(3-(trifluoromethyl)piperidin-1-yl)acetamide] | < 20 nM
Cc1ccc(NC(=O)c2ccc(Cl)c(C(C)(C)C#N)c2)cc1Nc1ncccc1-c1ncnc2[nH]cnc12 [Compound I-37, N-(3-((3-(9H-purin-6-yl)pyridin-2-yl)amino)-4-methylphenyl)-4-chloro-3-(2-cyanopropan-2-yl)benzamide] | 20 to 100 nM
Cc1ccc(NC(=O)c2ccnc(C3CC3)c2)cc1Nc1ncccc1-c1ncnc2[nH]cnc12 [Compound I-19, N-(3-((3-(9H-purin-6-yl)pyridin-2-yl)amino)-4-methylphenyl)-2-cyclopropylisonicotinamide] | < 20 nM
C#Cc1ccc(C(=O)Nc2ccc(C)c(Nc3ncccc3-c3ncnc4[nH]cnc34)c2)cc1 [Compound I-31, N-(3-((3-(9H-purin-6-yl)pyridin-2-yl)amino)-4-methylphenyl)-4-ethynylbenzamide] | < 20 nM
Cc1ccc(-c2ncnc3[nH]cnc23)c(Nc2cc(NC(=O)c3cc(C(F)(F)F)ccn3)ccc2C)n1 [Compound I-67, N-(4-methyl-3-((6-methyl-3-(9H-purin-6-yl)pyridin-2-yl)amino)phenyl)-4-(trifluoromethyl)picolinamide] | 20 to 100 nM
Cc1ncc(NC(=O)c2ccc(Cl)c(C#N)c2)cc1Nc1ncccc1-c1ncnc2[nH]cnc12 [Compound I-40, N-(5-((3-(9H-purin-6-yl)pyridin-2-yl)amino)-6-methylpyridin-3-yl)-4-chloro-3-cyanobenzamide] | ≥ 500 nM
Cc1ccc(NC(=O)c2ccnc(C3COC3)c2)cc1Nc1ncccc1-c1ncnc2[nH]cnc12 [Compound I-32, N-(3-((3-(9H-purin-6-yl)pyridin-2-yl)amino)-4-methylphenyl)-2-(oxetan-3-yl)isonicotinamide] | < 20 nM
Cc1ccc(NC(=O)CC2CCNC(C(F)(F)F)C2)cc1Nc1ncccc1-c1ncnc2[nH]cnc12 (stereo not drawn) [Compound I-76, N-(3-((3-(9H-purin-6-yl)pyridin-2-yl)amino)-4-methylphenyl)-2-(2-(trifluoromethyl)piperidin-4-yl)acetamide] | ≥ 500 nM
Cc1c(F)cc(NC(=O)c2ccnc(C3(C#N)CC3)c2)cc1Nc1ncccc1-c1ncnc2[nH]cnc12 [Compound I-62, N-(3-((3-(9H-purin-6-yl)pyridin-2-yl)amino)-5-fluoro-4-methylphenyl)-2-(1-cyanocyclopropyl)isonicotinamide] | < 20 nM
Cc1c(F)cc(C(=O)Nc2cccc(C3(C#N)CC3)c2)cc1Nc1ncccc1-c1ncnc2[nH]cnc12 [Compound I-60, 3-((3-(9H-purin-6-yl)pyridin-2-yl)amino)-N-(3-(1-cyanocyclopropyl)phenyl)-5-fluoro-4-methylbenzamide] | < 20 nM

Now from value to compound:

GI50 | Compound
< 20 nM | COc1c(C(F)(F)F)ccnc1C(=O)Nc1ccc(C)c(Nc2ncccc2-c2ncnc3[nH]cnc23)c1 [IA-101, N-(3-(3-(9H-purin-6-yl)pyridin-2-ylamino)-4-methylphenyl)-3-methoxy-4-(trifluoromethyl)picolinamide]
100 to 500 nM | Cc1ccc(NC(=O)CN2CCCCC(F)(F)C2)cc1Nc1ncccc1-c1ncnc2[nH]cnc12 [IA-112, N-(3-(3-(9H-purin-6-yl)pyridin-2-ylamino)-4-methylphenyl)-2-(3,3-difluoroazepan-1-yl)acetamide]
20 to 100 nM | Cc1ccc(NC(=O)CC2CCCCOC2)cc1Nc1ncccc1-c1ncnc2[nH]cnc12 (stereo not drawn) [IA-99, N-(3-(3-(9H-purin-6-yl)pyridin-2-ylamino)-4-methylphenyl)-2-(oxepan-3-yl)acetamide]
20 to 100 nM | Cc1ccc(NC(=O)c2cc(C(F)(F)F)ccn2)cc1Nc1ncccc1-c1ncnc2[nH]c(OCCN(C)C)nc12 [IA-124, N-(3-(3-(8-(2-(dimethylamino)ethoxy)-9H-purin-6-yl)pyridin-2-ylamino)-4-methylphenyl)-4-(trifluoromethyl)picolinamide]
< 20 nM | Cc1ccc(NC(=O)c2cc(C(F)(F)F)cc(OCCO)n2)cc1Nc1ncccc1-c1ncnc2[nH]cnc12 [IA-98, N-(3-((3-(9H-purin-6-yl)pyridin-2-yl)amino)-4-methylphenyl)-6-(2-hydroxyethoxy)-4-(trifluoromethyl)picolinamide]
< 20 nM | Cc1nc2c(-c3cccnc3Nc3cc(NC(=O)c4cc(C(F)(F)F)c(OCCO)cn4)ccc3C)ncnc2[nH]1 [IA-129, 5-(2-hydroxyethoxy)-N-(4-methyl-3-((3-(8-methyl-9H-purin-6-yl)pyridin-2-yl)amino)phenyl)-4-(trifluoromethyl)picolinamide]
100 to 500 nM | Cc1ccc(NC(=O)CC2CCCOCC2)cc1Nc1ncccc1-c1ncnc2[nH]cnc12 (stereo not drawn) [IA-102, N-(3-(3-(9H-purin-6-yl)pyridin-2-ylamino)-4-methylphenyl)-2-(oxepan-4-yl)acetamide]
< 20 nM | Cc1ccc(NC(=O)CN2CC[C@H](C(F)(F)F)C2)cc1Nc1ncccc1-c1ncnc2[nH]cnc12 [IA-109, (S)—N-(3-((3-(9H-purin-6-yl)pyridin-2-yl)amino)-4-methylphenyl)-2-(3-(trifluoromethyl)pyrrolidin-1-yl)acetamide]
≥ 500 nM | Cc1nc(-c2cccnc2Nc2cc(NC(=O)c3cc(C(F)(F)F)ccn3)ccc2C)c2nc[nH]c2n1 [IA-150, N-(4-methyl-3-((3-(2-methyl-9H-purin-6-yl)pyridin-2-yl)amino)phenyl)-4-(trifluoromethyl)picolinamide]
20 to 100 nM | Cc1ccc(NC(=O)c2ncc(C)c(C(F)(F)F)c2F)cc1Nc1ncccc1-c1ncnc2[nH]cnc12 [IA-91, N-(3-(3-(9H-purin-6-yl)pyridin-2-ylamino)-4-methylphenyl)-3-fluoro-5-methyl-4-(trifluoromethyl)picolinamide]
< 20 nM | Cc1ccc(NC(=O)C[C@H]2CCC[C@H](C(F)(F)F)C2)cc1Nc1ncccc1-c1ncnc2[nH]cnc12 (single isomer, unassigned) [IA-139]
100 to 500 nM | Cc1ccc(NC(=O)C23CC(C(F)(F)F)(CO2)C3)cc1Nc1ncccc1-c1ncnc2[nH]cnc12 [IA-108, N-(3-(3-(9H-purin-6-yl)pyridin-2-ylamino)-4-methylphenyl)-4-(trifluoromethyl)-2-oxabicyclo[2.1.1]hexane-1-carboxamide]
20 to 100 nM | Cc1ccc(NC(=O)CN2CCCCCC2)cc1Nc1ncccc1-c1ncnc2[nH]cnc12 [IA-110, N-(3-((3-(9H-purin-6-yl)pyridin-2-yl)amino)-4-methylphenyl)-2-(azepan-1-yl)acetamide]
< 20 nM | Cc1ccc(NC(=O)CN2CC[C@@H](C(F)(F)F)C2)cc1Nc1ncccc1-c1ncnc2[nH]cnc12 [IA-111, (R)—N-(3-(3-(9H-purin-6-yl)pyridin-2-ylamino)-4-methylphenyl)-2-(3-(trifluoromethyl)pyrrolidin-1-yl)acetamide]
< 20 nM | Cc1nc2c(-c3cccnc3Nc3cc(NC(=O)c4cc(C(F)(F)F)ccn4)ccc3C)ncnc2[nH]1 [IA-126, N-(4-methyl-3-((3-(8-methyl-9H-purin-6-yl)pyridin-2-yl)amino)phenyl)-4-(trifluoromethyl)picolinamide]
20 to 100 nM | Cc1ccc(NC(=O)c2cc(C(F)(F)F)c(OC3CNC3)cn2)cc1Nc1ncccc1-c1ncnc2[nH]cnc12 [IA-96, N-(3-(3-(9H-purin-6-yl)pyridin-2-ylamino)-4-methylphenyl)-5-(azetidin-3-yloxy)-4-(trifluoromethyl)picolinamide]
